Laboratory results as given in PMC6792352, “Limited Chemical Structural Diversity Found to Modulate Thyroid Hormone Receptor in the Tox21 Chemical Library” (Environmental Health Perspectives, 2019).
Where a name gives a salt, the structure may show the parent alone.

Test: in vitro
Conditions: rat, gh3-tre-luc cells, AC50 (uM) modified / 1000

Row | Structure (SMILES) | CC50 at 24 h
1 | CC(=O)OC(C)OC(=O)C(C)c1ccc(-c2ccccc2)c(F)c1 (stereo not drawn) [Flurbiprofen axetil] | > 50 µM
2 | COCC(=O)N(c1c(C)cccc1C)C(C)C(=O)OC (stereo not drawn) [Metalaxyl] | > 90 µM
3 | Fc1ccc(Oc2ccnc3cc(Cl)cc(Cl)c23)cc1 [Quinoxyfen] | 74.9 µM
4 | O=C(CO)[C@@H](O)[C@@H](O)[C@H](O)CO [D-Tagatose] | > 50 µM
5 | CN(C)C(=O)C(c1ccccc1)c1ccccc1 [Diphenamid] | > 90 µM
6 | CCCCOCCOCCOCCOCCO [3,6,9,12-Tetraoxahexadecan-1-ol] | > 90 µM
7 | COC(=O)[C@@H]1[C@H]2C[C@H]3c4[nH]c5ccccc5c4CCN3C[C@@H]2CC[C@@H]1O [Yohimbine] | > 50 µM
8 | CCCCCCC(CO)CCCC (stereo not drawn) [2-Butyloctan-1-ol] | > 90 µM
9 | NC(=O)CC[C@@H](N)C(=O)O [D-Glutamine] | > 50 µM
10 | O=C(OCC(COC(=O)c1cccnc1)(COC(=O)c1cccnc1)COC(=O)c1cccnc1)c1cccnc1 [Niceritrol] | > 50 µM
11 | Cc1c(C)n(Cc2ccccc2)c2ccc(C(=O)OCCN(C)C)cc12 [Indocate] | 8.6 µM
12 | CNC[C@H](O)c1cccc(O)c1 [Phenylephrine hydrochloride] | > 90 µM
13 | CSCCC=O [3-(Methylthio)propanal] | > 100 µM
14 | C/C=C(\C)C=O [2-Methyl-2-butenal] | > 90 µM
15 | CCCCOCC(C)OCC(C)O (stereo not drawn) [1-(2-Butoxy-1-methylethoxy)propan-2-ol] | > 90 µM
16 | CC(C)CCOC(=O)c1ccccc1 [Isopentyl benzoate] | > 90 µM
17 | COC(=O)C1=C(C)NC(COC(N)=O)=C(C(=O)OC(C)C)C1c1cccc(Cl)c1Cl (stereo not drawn) [Lemildipine] | 25.8 µM
18 | c1ccc2[nH]c(-c3cscn3)nc2c1 [Thiabendazole] | > 50 µM
19 | N=C(N)/N=C(\N)N1CCOCC1 [Moroxidine hydrochloride] | > 20 µM
20 | O=C(Oc1cccc2cccnc12)c1ccccc1 [Benzoxiquine] | 12 µM
21 | CCCCCCCC(=O)OCC(O)CO (stereo not drawn) [Glyceryl monooctanoate] | > 90 µM
22 | Cc1c(C(=O)O)cccc1[N+](=O)[O-] [2-Methyl-3-nitrobenzoic acid] | > 90 µM
23 | C=C(C)C(=O)OC1C[C@H]2CC[C@]1(C)C2(C)C (stereo partly drawn) [Isobornyl methacrylate] | > 90 µM
24 | CC(=O)O[C@@H]1C[C@H]2CC[C@]1(C)C2(C)C [Isobornyl acetate] | > 90 µM

Row | Structure (SMILES) | CC50 at 24 h
25 | NC[C@@H]1O[C@H](O[C@H]2[C@@H](O)[C@H](O[C@@H]3[C@@H](O)[C@H](N)C[C@H](N)[C@H]3O[C@H]3O[C@H](CN)[C@@H](O)[C@H](O)[C@H]3N)O[C@@H]2CO)[C@H](N)[C@@H](O)[C@@H]1O [Neomycin sulfate] | > 50 µM
26 | CCC(=O)NCC[C@@H]1CCc2ccc3c(c21)CCO3 [Ramelteon] | > 50 µM
27 | CO/N=C(\C(=O)N[C@@H]1C(=O)N2C(C(=O)O)=C(CSc3cnns3)CS[C@H]12)c1csc(N)n1 [Cefuzonam hydrochloride] | > 50 µM
28 | CC(C)COCC(CN(Cc1ccccc1)c1ccccc1)N1CCCC1 (stereo not drawn) [Bepridil] | 9.16 µM
29 | CCn1cc(C(=O)O)c(=O)c2cnc(N3CCCC3)nc21 [Piromidic acid] | > 20 µM
30 | CCN1CCCC1CNC(=O)c1cc(S(N)(=O)=O)ccc1OC (stereo not drawn) [Sulpiride] | > 90 µM
31 | O=C1c2ccccc2C(=O)C1c1ccccc1 [Phenindione] | > 20 µM
32 | CC(=O)OCCc1ccccc1 [2-Phenylethyl acetate] | > 90 µM
33 | CC(C)=CCOc1ccc(/C=C/C(=O)c2ccc(OCC=C(C)C)cc2OCC(=O)O)cc1 [Sofalcone] | 43 µM
34 | CCCCC(CC)C(=O)Cl (stereo not drawn) [2-Ethylhexanoyl chloride] | > 90 µM
35 | [2H]C([2H])([2H])[C@H](N)Cc1ccccc1 [D-Amphetamine-d3 hemisulfate] | > 50 µM
36 | CCNC(=S)NCC [N,N'-Diethylthiourea] | > 90 µM
37 | N[C@@H](COP(=O)(O)O)C(=O)O [Dexfosfoserine] | > 50 µM
38 | N[C@@H](CCC(=O)N[C@@H](CS)C(=O)NCC(=O)O)C(=O)O [Glutathione] | > 50 µM
39 | CCC(C)N(C)C(=O)c1cc2ccccc2c(-c2ccccc2Cl)n1 (stereo not drawn) [PK 11195] | 48.6 µM
40 | OCCc1ccncc1 [2-(Pyridin-4-yl)ethanol] | > 90 µM
41 | CCCCCCCCC=O [Nonanal] | > 90 µM
42 | CCCC(=O)OC/C=C(\C)CCC=C(C)C [Geranyl butyrate] | > 90 µM
43 | CC1(C)S[C@@H]2[C@H](NC(=O)[C@H](N)c3ccc(O)cc3)C(=O)N2[C@H]1C(=O)O [Amoxicillin] | > 50 µM
44 | Nc1cc([N+](=O)[O-])ccc1C(=O)O [4-Nitroanthranilic acid] | > 90 µM
45 | CC(=O)O[C@@H]1C(=O)O[C@H]2[C@@H]1OC(=O)[C@@H]2OC(C)=O [Aceglatone] | > 50 µM
46 | N[C@@H](Cc1cc(I)c(Oc2ccc(O)c(I)c2)c(I)c1)C(=O)O [3,5,3ʹ-Triiodothyronine] | > 70 µM
47 | O=C(O)/C=C/c1ccc(Cn2ccnc2)cc1 [Ozagrel hydrochloride] | > 20 µM
48 | Cn1sccc1=O [2-Methyl-4-isothiazolin-3-one hydrochloride] | 30.8 µM

Row | Structure (SMILES) | CC50 at 24 h
49 | OC/C(Br)=C(\Br)CO [(2E)-2,3-Dibromo-2-butene-1,4-diol] | > 90 µM
50 | CCN(CCO)CCCC(C)Nc1ccnc2cc(Cl)ccc12 (stereo not drawn) [Hydroxychloroquine sulfate] | > 50 µM
51 | COc1cccc2c1C(=O)c1c(O)c3c(c(O)c1C2=O)C[C@@](O)(C(C)=O)C[C@@H]3O[C@H]1C[C@H](N)[C@H](O)[C@H](C)O1 [Daunomycin hydrochloride] | 0.244 µM
52 | C1CNCCN1 [Piperazine] | > 50 µM
53 | CCCCCCNC(=O)n1cc(F)c(=O)[nH]c1=O [Carmofur] | 8.69 µM
54 | CCN(CC)C(C)=O [Diethylacetamide] | > 100 µM
55 | CC(C)Nc1cccnc1N1CCN(C(=O)c2cc3cc(NS(C)(=O)=O)ccc3[nH]2)CC1 [Delavirdine] | > 50 µM
56 | C[C@H](CCCC(C)(C)O)[C@H]1CC[C@H]2[C@@H]3CC=C4C[C@@H](O)CC[C@]4(C)[C@H]3CC[C@]12C [25-Hydroxycholesterol] | > 50 µM
57 | Nc1ccc(F)cc1 [4-Fluoroaniline] | > 100 µM
58 | c1ccncc1 [Pyridine hydrochloride] | > 90 µM
59 | Cc1ccc2ccccc2c1[N+](=O)[O-] [1-Nitro-2-methylnaphthalene] | > 90 µM
60 | Cc1ccccc1C(=O)Nc1cccc(OC(C)C)c1 [Mepronil] | > 90 µM
61 | COC(=O)[C@@H]1[C@H]2CC[C@@H](C[C@H]1OC(=O)c1ccccc1)N2C [Allococaine hydrochloride] | > 50 µM
62 | COc1cc(/C=C/c2ccccc2)oc(=O)c1 [Desmethoxyyangonin] | > 90 µM
63 | Cc1nccn1-c1ccc(Sc2cccc(C3(C(N)=O)CCOCC3)c2)cc1 [CJ-013610] | 42.6 µM
64 | CCC=CCCCCO (stereo in doubt) [(Z)-5-Octen-1-ol] | > 90 µM
65 | CCN(CC)c1ccc2c(-c3ccc(S(=O)(=O)O)cc3S(=O)(=O)[O-])c3ccc(=[N+](CC)CC)cc-3oc2c1 [C.I. Acid Red 52] | 13.4 µM
66 | CCC(Oc1ccccc1)C(=O)N[C@@H]1C(=O)N2[C@@H]1SC(C)(C)[C@@H]2C(=O)O (stereo partly drawn) [Propicillin] | > 50 µM
67 | CC(CC(c1ccccc1)c1ccccc1)NC(C)(C)C (stereo not drawn) [Terodiline hydrochloride] | 11 µM
68 | CC(C)C[C@H](NC(=O)OCC1c2ccccc2-c2ccccc21)C(=O)O [N-(9-Fluorenylmethoxycarbonyl)-L-leucine] | > 90 µM
69 | Cn1c(N)c(N=O)c(=O)n(C)c1=O [6-Amino-1,3-dimethyl-5-nitroso-2,4(1H,3H)-pyrimidinedione] | > 90 µM
70 | Cc1cc(C(C)(C)C)cc(C)c1CC1=NCCN1 [Xylometazoline hydrochloride] | > 20 µM
71 | O=C(Nc1ncc([N+](=O)[O-])s1)c1cccs1 [Tenonitrozole] | 30.4 µM
72 | CC1=C(/C=C/C(C)=C/C=C/C(C)=C/C(=O)Oc2c(C)c(C)c3c(c2C)CC[C@@](C)(CCC[C@H](C)CCC[C@H](C)CCCC(C)C)O3)C(C)(C)CCC1 [Tretinoin tocoferil] | > 50 µM

Same assay, conditions: rat, gh3-tre-luc cells, AC50 (uM) modified / 1000, Tox21_110001=Tox21_111100; viability, 1 nM T3 present, 24 h

Row | Structure (SMILES) | CC50 at 24 h
73 | Oc1cc(Cl)c(Cl)cc1Cl [2,4,5-Trichlorophenol] | > 50 µM

Same assay, conditions: rat, gh3-tre-luc cells, AC50 (uM) modified / 1000, Tox21_110001=Tox21_111806; viability, 1 nM T3 present, 24 h

Row | Structure (SMILES) | CC50 at 24 h
74 | C[C@@H](Cc1ccccc1)NCc1ccccc1Cl [Clobenzorex hydrochloride] | > 50 µM

Same assay, conditions: rat, gh3-tre-luc cells, AC50 (uM) modified / 1000, Tox21_110001=Tox21_201545; viability, 1 nM T3 present, 24 h

Row | Structure (SMILES) | CC50 at 24 h
75 | Oc1cc(Cl)c(Cl)cc1Cl [2,4,5-Trichlorophenol] | > 90 µM

Same assay, conditions: rat, gh3-tre-luc cells, AC50 (uM) modified / 1000, Tox21_110001=Tox21_201556; viability, 1 nM T3 present, 24 h

Row | Structure (SMILES) | CC50 at 24 h
76 | N#CC(c1ccccc1)c1ccccc1 [Diphenylacetonitrile] | > 90 µM

Same assay, conditions: rat, gh3-tre-luc cells, AC50 (uM) modified / 1000, Tox21_110001=Tox21_201657; viability, 1 nM T3 present, 24 h

Row | Structure (SMILES) | CC50 at 24 h
77 | COC(=O)c1ccccc1N [Methyl 2-aminobenzoate] | > 90 µM

Same assay, conditions: rat, gh3-tre-luc cells, AC50 (uM) modified / 1000, Tox21_110001=Tox21_300544; viability, 1 nM T3 present, 24 h

Row | Structure (SMILES) | CC50 at 24 h
78 | O=S(=O)(O)C(F)(F)C(F)(F)C(F)(F)C(F)(F)C(F)(F)C(F)(F)C(F)(F)C(F)(F)F [Potassium perfluorooctanesulfonate] | 49.4 µM

Same assay, conditions: rat, gh3-tre-luc cells, AC50 (uM) modified / 1000, Tox21_110001=Tox21_301070; viability, 1 nM T3 present, 24 h

Row | Structure (SMILES) | CC50 at 24 h
79 | BrCCCCBr [1,4-Dibromobutane] | > 90 µM

Same assay, conditions: rat, gh3-tre-luc cells, AC50 (uM) modified / 1000, Tox21_110001=Tox21_301204; viability, 1 nM T3 present, 24 h

Row | Structure (SMILES) | CC50 at 24 h
80 | NNCCO [2-Hydroxyethylhydrazine] | > 90 µM

Same assay, conditions: rat, gh3-tre-luc cells, AC50 (uM) modified / 1000, Tox21_110001=Tox21_301219; viability, 1 nM T3 present, 24 h

Row | Structure (SMILES) | CC50 at 24 h
81 | CCCSP(=S)(OCC)Oc1ccc(Cl)cc1Cl (stereo not drawn) [Prothiofos] | > 90 µM
